In US7285393B2, “Assay for modulation of γ secretase” (Merck Sharp & Dohme Limited, priority 2002, dated 2007):

Columns and labels:
[1] = target: T1, γ(42)-secretase activity (Homo sapiens, UniProt P49768); assay: Exogenous substrate γ-secretase assay, Aβ(42) generation from C100Flag; type: biochemical; settings: SH-SY5Y membranes, recombinant C100Flag substrate, 0.5% CHAPSO
T1 construct: utilizing SH-SY5Y membranes as source of γ-secretase enzyme; endogenous in cells; host or cells: human SH-SY5Y neuroblastoma cell membranes (0.5% CHAPSO)
Experimental: (§1) Exogenous substrate γ-secretase assays—For determination of the potencies of Merck A and B, membranes from SH-SY5Y membranes stored in PBS, 5% glycerol were collected by centrifugation for 30 min at 180,000 g. For in vitro generation of Aβ peptides, 80 μg of membranes were incubated with 7.5 μg of recombinant C100Flag (Li et al., 2000a) in 20 mM HEPES, pH 7.3, 2 mM EDTA, 0.1% bovine serum albumin, 0.5% CHAPSO in 100 μl final volume similar to described methods (Li et al., 2000a) in the presence of increasing compound concentrations. Aβ peptides were quantified by an electrochemiluminescence assay in a 96-well plate format [Origen M-Series™ analyzer, Igen] as described (Beher et al., 2001) using 35 μl of the reaction for Aβ(40) and 50 μl for Aβ(42) detection. Non-specific background was defined by the signal obtained when the assay was performed in the presence of 10 μM of Merck A. For determination of γ-secretase activity in the sucrose gradient fractions, 20 μl of each fraction were incubated with 10 μg of recombinant C100Flag and processed further as above.
(§2) FIG. 1. γ-Secretase inhibitors synthesized for this study and their potencies for inhibition of γ(40)- and γ(42)-secretase activities. […] The reduction of Aβ generation was measured relative to Me2SO-treated controls and error bars indicate the standard error the mean from triplicate experiments.

[2] = target: T2, γ(40)-secretase activity (Homo sapiens, UniProt P49768); assay: Exogenous substrate γ-secretase assay, Aβ(40) generation from C100Flag; type: biochemical; settings: SH-SY5Y membranes, recombinant C100Flag substrate, 0.5% CHAPSO
T2 construct: utilizing SH-SY5Y membranes as source of γ-secretase enzyme; endogenous in cells; host or cells: human SH-SY5Y neuroblastoma cell membranes (0.5% CHAPSO)
Experimental: as §1, §2

[3] = tested on: Aβ42, Aβ38 and Aβ40 production; settings: cited from earlier work
[4] = target: T3, γ-secretase complex (PS1 heterodimer and nicastrin) (Homo sapiens, UniProt P49768); assay: Inhibitor affinity precipitation of CHAPSO-solubilized γ-secretase with biotinylated Merck C, Western blot; type: binding; settings: test compound 200 μM, Merck C 0.1 μM, 2.5 mg beads
T3 construct: mainly occurs as a heterodimer of its N- and C-terminal fragment; endogenous in cells; host or cells: human SH-SY5Y neuroblastoma cell membranes, solubilised in 1% CHAPSO and diluted to 0.5%
Experimental: Western blot analyses—Equal amounts of protein were separated by SDS-polyacrylamide gel electrophoresis and transferred to nitrocellulose membranes. Probing of the membranes was carried out with various antibodies, as indicated in the figures, using the enhanced-chemiluminescence system (ECL, Amersham). Quantitation of bands using a computerized image analysis system (MCID, Imaging Research Inc.) was performed as described previously (Beher et al., 1999).
CHAPSO-solubilization of active γ-secretase and inhibitor affinity precipitations—SH-SY5Y membranes stored in PBS, 5% glycerol were collected by centrifugation for 30 min at 180,000 g. Membrane proteins were solubilized in 1% (w/v) CHAPSO, 50 mM MES-NaOH, pH 6.0, 0.15 M NaCl, 5 mM MgCl2, 1×EDTA-free protease inhibitor mixture (Roche Molecular Biochemicals). Insoluble debris was removed by centrifugation at 180,000 g for 30 min and the resulting supernatant (solubilized γ-secretase) adjusted with the same buffer without CHAPSO to give a final detergent concentration of 0.5% CHAPSO (w/v). Endogenous biotinylated proteins were removed by adding streptavidin-coupled magnetic beads and centrifugation for 2 min at 20,000 g after an incubation for 30 min at 4° C. […]

| IC50 for inhibition of γ(42)-secretase activity (in vitro generation of Aβ(42)) [1] | IC50 for inhibition of γ(40)-secretase activity (in vitro generation of Aβ(40)) [2] | Effect on capture efficiency for PS1 heterodimer and mature nicastrin by Merck C [4] | SMILES | Effect on production of Aβ38 [3] | Effect on production of Aβ40 [3] | Effect on production of Aβ42 [3] |
| --- | --- | --- | --- | --- | --- | --- |
| low nanomolar range | low nanomolar range | – | CC(C)CC(NC(=O)C(Cc1ccccc1)CC(O)C(Cc1ccccc1)NC(=O)OC(C)(C)C)C(=O)NC(Cc1ccccc1)C(=O)NCCCCCNC(=O)CCCCCNC(=O)CCCCCNC(=O)CCCCCN (stereo not shown) [Merck B] | – | – | – |
| – | – | comparable to the DMSO (Me2O) control | CC1=C(CC(=O)O)c2cc(F)ccc2/C1=C\c1ccc(S(C)(=O)=O)cc1 [sulindac sulfone] | – | – | does not lower |
| – | – | enhanced | CSc1ccc(/C=C2/C(C)=C(CC(=O)O)c3cc(F)ccc32)cc1 [sulindac sulphide] | increasing | constant | inhibit |

Continued, molecule first:

| SMILES | IC50 for inhibition of γ(42)-secretase activity (in vitro generation of Aβ(42)) [1] | IC50 for inhibition of γ(40)-secretase activity (in vitro generation of Aβ(40)) [2] | Effect on capture efficiency for PS1 heterodimer and mature nicastrin by Merck C [4] | Effect on production of Aβ38 [3] | Effect on production of Aβ40 [3] | Effect on production of Aβ42 [3] |
| --- | --- | --- | --- | --- | --- | --- |
| CC(C)CC(NC(=O)C(Cc1ccccc1)CC(O)C(Cc1ccccc1)NC(=O)OC(C)(C)C)C(=O)NC(Cc1ccccc1)C(N)=O (stereo not shown) [Merck A] | low nanomolar range | low nanomolar range | – | – | – | – |
| CC(C)Cc1ccc(C(C)C(=O)O)cc1 (stereo not shown) [ibuprofen] | – | – | – | increasing | constant | inhibit |
| COc1ccc2c(c1)c(CC(=O)O)c(C)n2C(=O)c1ccc(Cl)cc1 [indomethacin] | – | – | – | increasing | constant | inhibit |
